System: K24384-001-R-PDC complex spheroid growth
Experiment: Anticancer human tumor K24384-001-R-PDC patient-derived pancreatic adenocarcinoma cell line growth inhibition [AhR]
Conditions: for IC50: curve of first compound; for viability, T/C: stronger effect = lower value; active = viability on the fitted dose curve at most 10% of control; inactive = the rest
In short: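 Complex tumor spheroids co-cultured with HUVEC and human MSC stroma; AhR antagonists tested in combination with standard-of-care and investigational agents. Top concentration at or near clinical Cmax (else 10 microM), half-log dilutions; growth expressed as percent test/control.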
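Throughout, for viability, T/C: percent of DMSO vehicle-treated spheroid viability set as 100%.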

CC(C)c1c(-c2ccccc2)nc2c(C#N)c[nH]n2c1=O + Cc1cncc(-c2nc(NCCc3c[nH]c4ccccc34)c3ncn(C(C)C)c3n2)c1
> 10 µM: IC50 (second compound 0.1 µM) | IC50 (second compound 0.316 µM) | IC50 (second compound 1 µM) | IC50 (second compound 3.16 µM)
< 0.0316 µM: IC50 (second compound 10 µM)
inactive: viability, T/C (second compound 0.1 µM, first compound 0.0316 µM) 108% | viability, T/C (second compound 0.1 µM, first compound 0.1 µM) 110% | viability, T/C (second compound 0.1 µM, first compound 0.316 µM) 106% | viability, T/C (second compound 0.1 µM, first compound 1 µM) 102% | viability, T/C (second compound 0.1 µM, first compound 3.16 µM) 85.6% | viability, T/C (second compound 0.1 µM, first compound 10 µM) 85.8% | viability, T/C (second compound 0.316 µM, first compound 0.0316 µM) 104% | viability, T/C (second compound 0.316 µM, first compound 0.1 µM) 101% | viability, T/C (second compound 0.316 µM, first compound 0.316 µM) 115% | viability, T/C (second compound 0.316 µM, first compound 1 µM) 95.7% | viability, T/C (second compound 0.316 µM, first compound 3.16 µM) 87.5% | viability, T/C (second compound 0.316 µM, first compound 10 µM) 77.3% | viability, T/C (second compound 1 µM, first compound 0.0316 µM) 108% | viability, T/C (second compound 1 µM, first compound 0.1 µM) 110% | viability, T/C (second compound 1 µM, first compound 0.316 µM) 94.5% | viability, T/C (second compound 1 µM, first compound 1 µM) 95.1% | viability, T/C (second compound 1 µM, first compound 3.16 µM) 99% | viability, T/C (second compound 1 µM, first compound 10 µM) 69.1% | viability, T/C (second compound 3.16 µM, first compound 0.0316 µM) 83.7% | viability, T/C (second compound 3.16 µM, first compound 0.1 µM) 91.4% | viability, T/C (second compound 3.16 µM, first compound 0.316 µM) 82.6% | viability, T/C (second compound 3.16 µM, first compound 1 µM) 61.9% | viability, T/C (second compound 3.16 µM, first compound 3.16 µM) 70.4% | viability, T/C (second compound 3.16 µM, first compound 10 µM) 77.3%
active: viability, T/C (second compound 10 µM, first compound 0.0316 µM) 7.78% | viability, T/C (second compound 10 µM, first compound 0.1 µM) 6.78% | viability, T/C (second compound 10 µM, first compound 0.316 µM) 7.75% | viability, T/C (second compound 10 µM, first compound 1 µM) 8.55% | viability, T/C (second compound 10 µM, first compound 3.16 µM) 7.71% | viability, T/C (second compound 10 µM, first compound 10 µM) 10.2%
